Experimental data reported in US20250375544A1, “DUAL MODE RADIOTRACER AND -THERAPEUTICS” (TECHNISCHE UNIVERSITÄT MÜNCHEN, priority 2021, published 2025).

Legend:
[1] = biological target: PSMA (Homo sapiens, UniProt Q04609); assay: Affinity determinations (IC50), competitive binding assay with ([^125I]I-BA)KuE on LNCaP cells; conditions: ([^125I]I-BA)KuE 0.2 nM, HBSS (1% BSA), 4° C., 1 h, cold ^natGa/^natLu complex
[2] = Wangler et al., Bioconjug Chem. 2010; cited from earlier work

Chain of PSMA (Q04609 whole entry): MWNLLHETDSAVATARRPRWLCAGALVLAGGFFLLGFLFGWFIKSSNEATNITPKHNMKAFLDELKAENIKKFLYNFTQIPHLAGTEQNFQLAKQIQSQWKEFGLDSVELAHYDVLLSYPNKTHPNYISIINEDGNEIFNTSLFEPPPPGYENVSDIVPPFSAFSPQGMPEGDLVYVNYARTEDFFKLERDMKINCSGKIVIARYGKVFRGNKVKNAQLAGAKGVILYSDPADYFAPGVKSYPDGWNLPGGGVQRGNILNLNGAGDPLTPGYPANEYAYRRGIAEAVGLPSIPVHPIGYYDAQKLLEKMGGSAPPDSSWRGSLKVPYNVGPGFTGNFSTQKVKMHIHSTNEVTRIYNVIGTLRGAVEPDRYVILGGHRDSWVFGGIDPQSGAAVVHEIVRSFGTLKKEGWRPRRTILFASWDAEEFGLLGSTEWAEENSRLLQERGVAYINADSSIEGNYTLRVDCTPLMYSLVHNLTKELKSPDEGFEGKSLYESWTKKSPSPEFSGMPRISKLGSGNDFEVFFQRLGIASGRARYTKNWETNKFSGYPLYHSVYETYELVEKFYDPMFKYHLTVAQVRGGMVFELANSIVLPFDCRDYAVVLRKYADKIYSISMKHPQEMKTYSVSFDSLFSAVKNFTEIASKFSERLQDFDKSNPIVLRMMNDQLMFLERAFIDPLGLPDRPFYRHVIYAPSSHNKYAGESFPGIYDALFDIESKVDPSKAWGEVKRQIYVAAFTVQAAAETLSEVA

Molecule | IC50 [1] [nM] | log P(ow) [2]
CC(C)(C)[Si](F)(c1ccc(C(=O)NCC(NC(=O)CN2CCN(CC(=O)[O-])CCN(CC(=O)[O-])CCN(CC(=O)[O-])CC2)C(=O)NC(CCCCNC(=O)CCC(=O)NCCCC(NC(=O)CCC(NC(=O)NC(CCC(=O)O)C(=O)O)C(=O)O)C(=O)O)C(=O)O)cc1)C(C)(C)C.[Lu+3] (centres unmarked) [^natLu-1, ^natLu-PSMA-10, reference compound] | 7.2 ± 3.7 | –
CCCCC[C@H](NC(=O)N[C@@H](CCC(=O)N[C@H](CCCNC(=O)CCC(=O)NCCCC[C@@H](NC(=O)[C@@H](CNC(=O)c1ccc([Si](F)(C(C)(C)C)C(C)(C)C)cc1)NC(=O)CN1CCN(CC(=O)[O-])CCN(CC(=O)[O-])CCN(CC(=O)[O-])CC1)C(=O)O)C(=O)O)C(=O)O)C(=O)O.[Lu+3] [^natLu-8, ^natLu-2-Aminoheptanoic Acid Derivative 8] | > 2000 | –
CC(C)(C)[Si](F)(c1ccc(C(=O)NCC(NC(=O)CN2CCN(CC(=O)[O-])CCN(CC(=O)[O-])CCN(CC(=O)[O-])CC2)C(=O)NC(CCCCNC(=O)CCC(=O)NCCCC(NC(=O)CCC(NC(=O)NC(Cc2ccco2)C(=O)O)C(=O)O)C(=O)O)C(=O)O)cc1)C(C)(C)C.[Lu+3] (centres unmarked) [^natLu-9, ^natLu-Furyl Derivative 9] | > 440 | –
CC(C)(C)[Si](F)(c1ccc(C(=O)NCC(NC(=O)CN2CCN(CC(=O)[O-])CCN(CC(=O)[O-])CCN(CC(=O)[O-])CC2)C(=O)NC(CCCCNC(=O)CCC(=O)NCCCC(NC(=O)CCC(NC(=O)NC(CCc2nnn[nH]2)C(=O)O)C(=O)O)C(=O)O)C(=O)O)cc1)C(C)(C)C.[Lu+3] (centres unmarked) [^natLu-11, ^natLu-Tetrazole Derivative 11] | 16.4 ± 3.8 | –
SIFA-Asn(AcNH-p-Glc)-PEG-Tyr^3-octreotate | – | 0.96
